According to patent US20090042883A1, “ANTITUMOR AGENT” (KYOWA HAKKOKOGYO CO., priority 2005, published 2009):

Assays:
Assay type in all cases: cell-based
[1] = tested on: human acute myelocytic leukemia MV4; 11 cells; experiment: Growth inhibition test on human acute myelocytic leukemia MV4; 11 cells (WST-1, % viability); details: test compound 10 μmol/L, cells without test compound = 100%
Procedure: (§1) Ten thousand cells of human acute myelocytic leukemia MV4; 11 were inoculated into each well of a 96-well microplate (manufactured by Nunc Corp.), and using IMDM medium (culture medium) containing 10% FCS, preculturing was performed in a 5% carbon dioxide incubator at 37° C. for 24 hours. A DMSO solution of each test compound prepared in a concentration of 10 mmol/L was diluted with the culture medium to a final concentration of 10 μmol/L, and the diluted solution was added to each well. The individual wells were further cultured in the 5% carbon dioxide incubator at 37° C. for 72 hours. After completion of the culturing, 10 μL of WST-1 labeled mixture (manufactured by Roche Diagnostic Corp.) was added to each well, and culturing was performed in the 5% carbon dioxide incubator at 37° C. for 1 hour. Using a microplate spectrophotometer (SpectraMax 340PC384; manufactured by Nihon Molecular Devices), the absorbance of each well was measured at 450 nm and 655 nm. The value obtained by subtracting the absorbance at 450 nm from the absorbance at 655 nm (absorbance difference) was calculated for each well. The value for cells not incorporated with a test compound was designated as 100%, and the value at a well not containing cells was designated as 0%. By comparing these values with the absorbance difference obtained at the well in which each test compound was added, the cell viability (% viability) after treatment with the test compound was calculated.

[2] = tested on: human lung cancer NCI-H596 cells; experiment: Growth inhibition test on human lung cancer NCI-H596 cells (WST-1, % viability); details: test compound 10 μmol/L, cells without test compound = 100%
Procedure: as §1, with “Four” for “Ten”, “lung cancer NCI-H596” for “acute myelocytic leukemia MV4; 11”, “RPMI1640” for “IMDM”, “2 hours.” for “1 hour.”, “(Model 550;” for “(SpectraMax 340PC384;”, “Bio-Rad),” for “Nihon Molecular Devices),”

[3] = tested on: human T-cell lymphoma Karpas-299 cells; experiment: Growth inhibition test on human T-cell lymphoma Karpas-299 cells (WST-1, % viability); details: test compound 10 μmol/L, 72 hours, cells without test compound = 100%
Procedure: as §1, with “Five” for “Ten”, “T-cell lymphoma Karpas-299” for “acute myelocytic leukemia MV4; 11”, “RPMI” for “IMDM”, “5” for “24”, “2 hours.” for “1 hour.”

[4] = tested on: human renal cancer OS-RC-2 cells; experiment: Growth inhibition test on human renal cancer OS-RC-2 cells (WST-1, % viability); details: test compound 10 μmol/L, 72 hours, cells without test compound = 100%
Procedure: as §1, with “One” for “Ten”, “renal cancer OS-RC-2” for “acute myelocytic leukemia MV4; 11”, “RPMI1640” for “IMDM”, “2 hours.” for “1 hour.”, “(Model 550;” for “(SpectraMax 340PC384;”, “Bio-Rad),” for “Nihon Molecular Devices),”

[5] = tested on: human prostate cancer 22Rv1 cells; experiment: Growth inhibition test on human prostate cancer 22Rv1 cells (WST-1, % viability); details: test compound 10 μmol/L, 72 hours, cells without test compound = 100%
Procedure: as §1, with “Five” for “Ten”, “prostate cancer 22Rv1” for “acute myelocytic leukemia MV4; 11”, “RPMI1640” for “IMDM”, “2 hours.” for “1 hour.”, “(Model 550;” for “(SpectraMax 340PC384;”, “Bio-Rad),” for “Nihon Molecular Devices),”

SMILES: CCc1c(O)cc(O)c(C(=O)c2ccc(OC)cc2)c1CC(=O)N(CCO)CCO [Compound 13]
- Viability of tumor cells (% viability), Human acute myelocytic leukemia MV4; 11 cells [1]: 0%
- Viability of tumor cells (% viability), Human lung cancer NCI-H596 cells [2]: 35%
- Viability of tumor cells (% viability), Human T-cell lymphoma Karpas-299 cells [3]: 27%
- Viability of tumor cells (% viability), Human renal cancer OS-RC-2 cells [4]: 66%
- Viability of tumor cells (% viability), Human prostate cancer 22Rv1 cells [5]: 6%

SMILES: CCc1c(O)cc(O)c(C(=O)c2ccc(OC)cc2)c1CC(=O)N(C)Cc1cccnc1 [Compound 16]
- Viability of tumor cells (% viability), Human acute myelocytic leukemia MV4; 11 cells [1]: 0%
- Viability of tumor cells (% viability), Human lung cancer NCI-H596 cells [2]: 19%
- Viability of tumor cells (% viability), Human T-cell lymphoma Karpas-299 cells [3]: 13%
- Viability of tumor cells (% viability), Human renal cancer OS-RC-2 cells [4]: 17%
- Viability of tumor cells (% viability), Human prostate cancer 22Rv1 cells [5]: 5%

SMILES: CCc1c(O)cc(O)c(C(=O)c2ccc(OC)cc2)c1CC(=O)N1CCN(c2ccccc2C#N)CC1 [Compound 17]
- Viability of tumor cells (% viability), Human acute myelocytic leukemia MV4; 11 cells [1]: 0%
- Viability of tumor cells (% viability), Human lung cancer NCI-H596 cells [2]: 16%
- Viability of tumor cells (% viability), Human T-cell lymphoma Karpas-299 cells [3]: 16%
- Viability of tumor cells (% viability), Human renal cancer OS-RC-2 cells [4]: 20%
- Viability of tumor cells (% viability), Human prostate cancer 22Rv1 cells [5]: 5%

SMILES: CCc1c(O)cc(O)c(C(=O)c2ccc(OC)cc2)c1CC(=O)N1CCN(c2ncccn2)CC1 [Compound 32]
- Viability of tumor cells (% viability), Human acute myelocytic leukemia MV4; 11 cells [1]: 0%
- Viability of tumor cells (% viability), Human lung cancer NCI-H596 cells [2]: 15%
- Viability of tumor cells (% viability), Human T-cell lymphoma Karpas-299 cells [3]: 15%
- Viability of tumor cells (% viability), Human renal cancer OS-RC-2 cells [4]: 17%
- Viability of tumor cells (% viability), Human prostate cancer 22Rv1 cells [5]: 5%

SMILES: CCc1c(O)cc(O)c(C(=O)c2ccc(OC)cc2)c1CC(=O)N(CCO)CCOC [Compound 33]
- Viability of tumor cells (% viability), Human acute myelocytic leukemia MV4; 11 cells [1]: 0%
- Viability of tumor cells (% viability), Human lung cancer NCI-H596 cells [2]: 20%
- Viability of tumor cells (% viability), Human T-cell lymphoma Karpas-299 cells [3]: 14%
- Viability of tumor cells (% viability), Human renal cancer OS-RC-2 cells [4]: 18%
- Viability of tumor cells (% viability), Human prostate cancer 22Rv1 cells [5]: 5%

SMILES: CCc1c(O)cc(O)c(C(=O)c2ccc(OC)cc2)c1CC(=O)N1CCc2cc(OC)c(OC)cc2C1 [Compound 38]
- Viability of tumor cells (% viability), Human acute myelocytic leukemia MV4; 11 cells [1]: 0%
- Viability of tumor cells (% viability), Human lung cancer NCI-H596 cells [2]: 15%
- Viability of tumor cells (% viability), Human T-cell lymphoma Karpas-299 cells [3]: 14%
- Viability of tumor cells (% viability), Human renal cancer OS-RC-2 cells [4]: 18%
- Viability of tumor cells (% viability), Human prostate cancer 22Rv1 cells [5]: 4%

SMILES: CCc1c(O)cc(O)c(C(=O)c2ccc(OC)c(OC)c2)c1CC(=O)N1CCN(c2ccccc2)CC1 [Compound 41]
- Viability of tumor cells (% viability), Human acute myelocytic leukemia MV4; 11 cells [1]: 0%
- Viability of tumor cells (% viability), Human lung cancer NCI-H596 cells [2]: 12%
- Viability of tumor cells (% viability), Human T-cell lymphoma Karpas-299 cells [3]: 19%
- Viability of tumor cells (% viability), Human renal cancer OS-RC-2 cells [4]: 18%
- Viability of tumor cells (% viability), Human prostate cancer 22Rv1 cells [5]: 5%

SMILES: CCc1c(O)cc(O)c(C(=O)c2ccc(OC)c(OC)c2)c1CC(=O)N(CCO)CCOC [Compound 56]
- Viability of tumor cells (% viability), Human acute myelocytic leukemia MV4; 11 cells [1]: 0%
- Viability of tumor cells (% viability), Human lung cancer NCI-H596 cells [2]: 20%
- Viability of tumor cells (% viability), Human T-cell lymphoma Karpas-299 cells [3]: 14%
- Viability of tumor cells (% viability), Human renal cancer OS-RC-2 cells [4]: 18%
- Viability of tumor cells (% viability), Human prostate cancer 22Rv1 cells [5]: 5%

SMILES: CCc1c(O)cc(O)c(C(=O)c2ccc(OC)cc2)c1CC(=O)N1CCC(CO)CC1 [Compound 61]
- Viability of tumor cells (% viability), Human acute myelocytic leukemia MV4; 11 cells [1]: 0%
- Viability of tumor cells (% viability), Human lung cancer NCI-H596 cells [2]: 25%
- Viability of tumor cells (% viability), Human T-cell lymphoma Karpas-299 cells [3]: 13%
- Viability of tumor cells (% viability), Human renal cancer OS-RC-2 cells [4]: 25%
- Viability of tumor cells (% viability), Human prostate cancer 22Rv1 cells [5]: 5%

SMILES: CCc1c(O)cc(O)c(C(=O)c2ccc(OC)cc2)c1CC(=O)N(CCO)Cc1ccco1 [Compound 69]
- Viability of tumor cells (% viability), Human acute myelocytic leukemia MV4; 11 cells [1]: 0%
- Viability of tumor cells (% viability), Human lung cancer NCI-H596 cells [2]: 15%
- Viability of tumor cells (% viability), Human T-cell lymphoma Karpas-299 cells [3]: 14%
- Viability of tumor cells (% viability), Human renal cancer OS-RC-2 cells [4]: 16%
- Viability of tumor cells (% viability), Human prostate cancer 22Rv1 cells [5]: 5%

SMILES: CCc1c(O)cc(O)c(C(=O)c2ccc(OC(F)(F)F)cc2)c1CC(=O)N(CCO)CCOC [Compound 88]
- Viability of tumor cells (% viability), Human acute myelocytic leukemia MV4; 11 cells [1]: 0%
- Viability of tumor cells (% viability), Human lung cancer NCI-H596 cells [2]: 14%
- Viability of tumor cells (% viability), Human T-cell lymphoma Karpas-299 cells [3]: 16%
- Viability of tumor cells (% viability), Human renal cancer OS-RC-2 cells [4]: 17%
- Viability of tumor cells (% viability), Human prostate cancer 22Rv1 cells [5]: 6%

SMILES: CCc1c(O)cc(O)c(C(=O)c2ccc(OC(F)F)cc2)c1CC(=O)N(CCO)CCOC [Compound 91]
- Viability of tumor cells (% viability), Human acute myelocytic leukemia MV4; 11 cells [1]: 0%
- Viability of tumor cells (% viability), Human lung cancer NCI-H596 cells [2]: 14%
- Viability of tumor cells (% viability), Human T-cell lymphoma Karpas-299 cells [3]: 16%
- Viability of tumor cells (% viability), Human renal cancer OS-RC-2 cells [4]: 17%
- Viability of tumor cells (% viability), Human prostate cancer 22Rv1 cells [5]: 5%

SMILES: CCc1c(O)cc(O)c(C(=O)c2ccc(SC)cc2)c1CC(=O)N(CCO)CCOC [Compound 95]
- Viability of tumor cells (% viability), Human acute myelocytic leukemia MV4; 11 cells [1]: 0%
- Viability of tumor cells (% viability), Human lung cancer NCI-H596 cells [2]: 14%
- Viability of tumor cells (% viability), Human T-cell lymphoma Karpas-299 cells [3]: 15%
- Viability of tumor cells (% viability), Human renal cancer OS-RC-2 cells [4]: 18%
- Viability of tumor cells (% viability), Human prostate cancer 22Rv1 cells [5]: 5%

SMILES: CCc1c(O)cc(O)c(C(=O)c2ccc(O)c(OC)c2)c1CC(=O)N(CCOC)CCOC [Compound 106]
- Viability of tumor cells (% viability), Human acute myelocytic leukemia MV4; 11 cells [1]: 0%
- Viability of tumor cells (% viability), Human lung cancer NCI-H596 cells [2]: 12%
- Viability of tumor cells (% viability), Human T-cell lymphoma Karpas-299 cells [3]: 13%
- Viability of tumor cells (% viability), Human renal cancer OS-RC-2 cells [4]: 16%
- Viability of tumor cells (% viability), Human prostate cancer 22Rv1 cells [5]: 5%
